Experiments:
Format in all cases: in vivo
[1] = system: Hordeum vulgare (spring barley), HORVS; test: Greenhouse postemergence safening trial, visual injury on spring barley
Procedure: (§1) Greenhouse Trial Methodology-Evaluation of Postemergence Herbicidal […] in Crops […] When required to ensure good germination and healthy plants, a fungicide treatment and/or other chemical or physical treatment was applied. The plants were grown for 7-36 days (d) in a greenhouse with an approximate 14-hour (h) photoperiod which was maintained at about 23° C. during the day and 22° C. during the night. Nutrients and water were added on a regular basis and supplemental lighting was provided with overhead metal halide 1000-Watt lamps as necessary. The plants were employed for testing when they reached the second or third true leaf stage. Emulsifiable concentrates of each of each pyridine carboxylate herbicide (Compound A or Compound B) were prepared at 100 grams acid equivalent per liter (g ae/L). […] The concentrated stock solutions were further diluted with an aqueous mixture of 1.25% […] or MSO® Concentrate with LECI-TECH® to obtain stock solutions at reduced application rates for each herbicide. Spray solutions of the herbicide combinations (Compound A or Compound B plus safener) were prepared by adding weighed amounts or aliquots of the safener to the stock solutions of Compound A or Compound B to form 12-mL spray solutions in two-way combinations. […] Control plants were sprayed in the same manner with the solvent blank. All herbicide (component a) application rates are given as “g ae/ha” and all safener (component b) application rates are given as “g ai/ha.” The treated plants and control plants were placed in a greenhouse as described above and watered by sub-irrigation to prevent wash-off of the test compounds.

[2] = system: Sinapis arvensis (wild mustard), SINAR; test: Greenhouse postemergence trial, visual injury on wild mustard
Source text: (§2) Greenhouse Trial Methodology—Evaluation of Postemergence Herbicidal Safening in Crops
(§3) Seeds of the desired test plant species were planted in a 90:10% v/v (volume/volume) mixture of PRO-MIX® BX (Premier Tech Horticulture, Quakertown, PA, USA) and PROFILE® GREENS GRADE™ (Profile Products LLC, Buffalo Grove, IL, USA) planting mixture, which typically has a pH of 5.2 to 6.2 and an organic matter content of at least 50 percent, in plastic pots with a surface area of 103.2 square centimeters (cm^2). When required to ensure good germination and healthy plants, a fungicide treatment and/or other chemical or physical treatment was applied. The plants were grown for 7-36 days (d) in a greenhouse with an approximate 14-hour (h) photoperiod which was maintained at about 23° C. during the day and 22° C. during the night. Nutrients and water were added on a regular basis and supplemental lighting was provided with overhead metal halide 1000-Watt lamps as necessary. The plants were employed for testing when they reached the second or third true leaf stage.
(§4) Emulsifiable concentrates of each of each pyridine carboxylate herbicide (Compound A or Compound B) were prepared at 100 grams acid equivalent per liter (g ae/L). An aliquot of each emulsifiable concentrate was placed in a 25 mL glass vial and diluted with an aqueous mixture of 1.25% (v/v) ACTIROB® B esterified rapeseed oil (Bayer Crop Science, Research Triangle Park, NC, USA) or MSO® Concentrate with LECI-TECH® methylated soybean oil (Loveland Products, Loveland, CO, USA) to obtain concentrated stock solutions at the highest application rate for each herbicide, based upon a 12 milliliter (mL) application volume at a rate of 187 liters per hectare (L/ha). The concentrated stock solutions were further diluted with an aqueous mixture of 1.25% v/v ACTIROB® B or MSO® Concentrate with LECI-TECH® to obtain stock solutions at reduced application rates for each herbicide. Spray solutions of the herbicide combinations (Compound A or Compound B plus safener) were prepared by adding weighed amounts or aliquots of the safener to the stock solutions of Compound A or Compound B to form 12-mL spray solutions in two-way combinations.
(§5) The spray solutions were applied to the plant material with an overhead Mandel track sprayer equipped with 8002E nozzles calibrated to deliver 187 L/ha over an application area of 0.503 square meters (m^2) at a spray height of 18 inches (43 centimeters (cm)) above the average plant canopy. Control plants were sprayed in the same manner with the solvent blank. All herbicide (component a) application rates are given as “g ae/ha” and all safener (component b) application rates are given as “g ai/ha.”
(§6) The treated plants and control plants were placed in a greenhouse as described above and watered by sub-irrigation to prevent wash-off of the test compounds. After 20-22 d, the condition of the test plants as compared with that of the control plants was determined visually and scored on a scale of 0 to 100 percent where 0 corresponds to no injury and 100 corresponds to complete kill.

[3] = system: Hordeum vulgare (winter barley), HORVW; test: Greenhouse postemergence safening trial, visual injury on winter barley
Procedure: as §1

[4] = system: Salsola kali (Russian thistle), SASKR; test: Greenhouse postemergence trial, visual injury on Russian thistle; conditions: herbicide alone 20 g/ha
Procedure: as §1

[5] = system: Avena sativa (common oat), AVESA; test: Greenhouse postemergence safening trial, visual injury on common oat
Procedure: as §1

[6] = system: Triticum aestivum (winter wheat), TRZAW; test: Greenhouse postemergence safening trial, visual injury on winter wheat
Procedure: as §1

[7] = system: Triticum aestivum (durum wheat), TRZDU; test: Greenhouse postemergence safening trial, visual injury on durum wheat
Procedure: as §1

[8] = system: Triticum aestivum (spring wheat), TRZAS; test: Greenhouse postemergence safening trial, visual injury on spring wheat
Procedure: as §1

[9] = system: Brassica napus (winter rape), BRSNW; test: Greenhouse postemergence trial, visual injury on winter rape
Procedure: as §1

[10] = system: Fagopyrum esculentum (common buckwheat), FAGES; test: Greenhouse postemergence trial, visual injury on common buckwheat; conditions: herbicide alone 20 g/ha
Source text: as §2, §3, §4, §5, §6

[11] = system: Polygonum convulvus (wild buckwheat), POLCO; test: Greenhouse postemergence trial, visual injury on wild buckwheat; conditions: herbicide alone 20 g/ha
Source text: as §2, §3, §4, §5, §6

[12] = system: Anthemis arvensis (field chamomile), ANTAR; test: Greenhouse postemergence trial, visual injury on field chamomile
Source text: as §2, §3, §4, §5, §6

[13] = system: common sunflower (HELAN, Helianthus annuus); test: Greenhouse postemergence trial, visual injury on common sunflower; conditions: Table 18
Source text: as §2, §3, §4, §5, §6

[14] = system: pigweed (AMARE, Amaranthus retroflexus); test: Greenhouse postemergence trial, visual injury on pigweed; conditions: Table 18
Source text: as §2, §3, §4, §5, §6

[15] = system: nutsedge (CYPES, Cyperus esculentus); test: Greenhouse postemergence trial, visual injury on nutsedge; conditions: Table 18
Source text: as §2, §3, §4, §5, §6

maize (ZEAMX) = test: Greenhouse postemergence safening trial, visual injury on maize; conditions: Table 18
Source text: as §2, §3, §4, §5, §6

[16] = system: Matricaria inodora (false chamomile), MATIN; test: Greenhouse postemergence trial, visual injury on false chamomile
Source text: as §2, §3, §4, §5, §6

C#CCOC(=O)c1nc(-c2ccc3cc[nH]c3c2F)c(F)c(N)c1Cl [Compound B, propargyl 4-amino-3-chloro-5-fluoro-6-(7-fluoro-1H-indol-6-yl)pyridine-2-carboxylate]
% visual injury, Ob ([1]; herbicide alone 20 g/ha): 30% | % visual injury, Ob ([1]; herbicide alone 40 g/ha): 25% | % visual injury, Ob ([2]; herbicide alone 20 g/ha): 80% | % visual injury Δ ([3]; herbicide alone 40 g/ha): 0% | % visual injury, Ob ([3]; herbicide alone 40 g/ha): 38% | % visual injury, Ob [4]: 70% | % visual injury, Ob ([5]; herbicide alone 40 g/ha): 0% | % visual injury, Ob ([6]; herbicide alone 40 g/ha): 50% | % visual injury, Ob ([7]; herbicide alone 40 g/ha): 40% | % visual injury, Ob ([8]; herbicide alone 20 g/ha): 28% | % visual injury, Ob ([8]; herbicide alone 40 g/ha): 48% | % visual injury, Ob ([9]; herbicide alone 20 g/ha): 100% | % visual injury, Ob [10]: 78% | % visual injury, Ob [11]: 100%

O=C(O)COc1ccc(Cl)c2cccnc12 [CQC-a, cloquintocet-acid]
% visual injury, Ob ([12]; safener alone 5 g/ha): 0% | % visual injury, Ob ([12]; safener alone 10 g/ha): 0% | % visual injury, Ob ([12]; safener alone 20 g/ha): 0% | % visual injury, Ob ([12]; safener alone 40 g/ha): 0% | % visual injury, Ob ([1]; safener alone 5 g/ha): 0% | % visual injury, Ob ([1]; safener alone 10 g/ha): 0% | % visual injury, Ob ([1]; safener alone 20 g/ha): 0% | % visual injury, Ob ([1]; safener alone 40 g/ha): 0% | % visual injury, Ob ([1]; safener alone 80 g/ha): 0% | % visual injury, Ob ([1]; safener alone 120 g/ha): 0% | % visual injury, Ob ([13]; CQC-a 20 g/ha alone): 0% | % visual injury, Ob ([13]; CQC-a 40 g/ha alone): 0% | % visual injury, Ob ([13]; CQC-a 80 g/ha alone): 0% | % visual injury, Ob ([13]; CQC-a 120 g/ha alone): 0% | % visual injury, Ob ([14]; CQC-a 20 g/ha alone): 0% | % visual injury, Ob ([14]; CQC-a 40 g/ha alone): 0% | % visual injury, Ob ([14]; CQC-a 80 g/ha alone): 0% | % visual injury, Ob ([14]; CQC-a 120 g/ha alone): 0% | % visual injury, Ob ([2]; safener alone 10 g/ha): 0% | % visual injury, Ob ([2]; safener alone 20 g/ha): 0% | % visual injury, Ob ([2]; safener alone 40 g/ha): 0% | % visual injury, Ob ([2]; safener alone 80 g/ha): 0% | % visual injury, Ob ([3]; safener alone 5 g/ha): 0% | % visual injury, Ob ([3]; safener alone 10 g/ha): 0% | % visual injury, Ob ([3]; safener alone 20 g/ha): 0% | % visual injury, Ob ([3]; safener alone 40 g/ha): 0% | % visual injury, Ob ([3]; safener alone 80 g/ha): 0% | % visual injury, Ob ([15]; CQC-a 20 g/ha alone): 0% | % visual injury, Ob ([15]; CQC-a 40 g/ha alone): 0% | % visual injury, Ob ([15]; CQC-a 80 g/ha alone): 0% | % visual injury, Ob ([15]; CQC-a 120 g/ha alone): 0% | % visual injury, Ob (maize (ZEAMX); CQC-a 20 g/ha alone): 0% | % visual injury, Ob (maize (ZEAMX); CQC-a 40 g/ha alone): 0% | % visual injury, Ob (maize (ZEAMX); CQC-a 80 g/ha alone): 0% | % visual injury, Ob (maize (ZEAMX); CQC-a 120 g/ha alone): 0% | % visual injury, Ob ([5]; safener alone 40 g/ha): 0% | % visual injury, Ob ([6]; safener alone 5 g/ha): 0% | % visual injury, Ob ([6]; safener alone 10 g/ha): 0% | % visual injury, Ob ([6]; safener alone 20 g/ha): 0% | % visual injury Δ ([6]; safener alone 40 g/ha): 0% | % visual injury, Ob ([6]; safener alone 40 g/ha): 0% | % visual injury, Ob ([6]; safener alone 80 g/ha): 0% | % visual injury, Ob ([6]; safener alone 120 g/ha): 0% | % visual injury, Ob ([7]; safener alone 40 g/ha): 0% | % visual injury, Ob ([8]; safener alone 5 g/ha): 0% | % visual injury, Ob ([8]; safener alone 10 g/ha): 0% | % visual injury, Ob ([8]; safener alone 20 g/ha): 0% | % visual injury, Ob ([8]; safener alone 40 g/ha): 0% | % visual injury, Ob ([8]; safener alone 80 g/ha): 0% | % visual injury, Ob ([8]; safener alone 120 g/ha): 0% | % visual injury, Ob ([16]; safener alone 10 g/ha): 0% | % visual injury, Ob ([16]; safener alone 20 g/ha): 0% | % visual injury, Ob ([16]; safener alone 40 g/ha): 0% | % visual injury, Ob ([16]; safener alone 80 g/ha): 0% | % visual injury, Ob ([9]; safener alone 5 g/ha): 0% | % visual injury, Ob ([9]; safener alone 10 g/ha): 0% | % visual injury, Ob ([9]; safener alone 20 g/ha): 0% | % visual injury, Ob ([9]; safener alone 40 g/ha): 0%

— US12310364B2, “Safened compositions comprising pyridine carboxylate herbicides and cloquintocet” (Corteva Agriscience LLC, priority 2018, dated 2025)
